# Laboratory results as given in PubChem BioAssay AID1963841 (Molecular Pharmacology Branch, DTP, NCI, 2024).
# Tested on: 439559-082-T-J2-PDC spheroid viability
# Assay: Anticancer human tumor 439559-082-T-J2-PDC patient-derived colon adenocarcinoma cell line growth inhibition [POLQ]
# Settings: spheroids with HUVEC and MSC; for IC50: curve of first compound; for viability, T/C: stronger effect = lower value
# Method in brief: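 Patient-derived tumour cells were co-cultured with HUVEC and mesenchymal stem cells as multicellular spheroids at 37 °C. They were treated with POLQ inhibitors (novobiocin, ART-558, RP6685) alone or combined with other agents. Top concentrations were at or near clinical Cmax (otherwise 10 microM; SN-38 at 1 microM), decreasing in half-log steps.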
# [1] = second compound 0.0316 µM, first compound 0.0316 µM
# [2] = second compound 0.0316 µM, first compound 0.1 µM
# [3] = second compound 0.0316 µM, first compound 0.316 µM
# [4] = second compound 0.0316 µM, first compound 1 µM
# [5] = second compound 0.0316 µM, first compound 3.16 µM
# [6] = second compound 0.0316 µM, first compound 10 µM
# [7] = second compound 0.1 µM, first compound 0.0316 µM
# [8] = second compound 0.1 µM, first compound 0.1 µM
# [9] = second compound 0.1 µM, first compound 0.316 µM
# [10] = second compound 0.1 µM, first compound 1 µM
# [11] = second compound 0.1 µM, first compound 3.16 µM
# [12] = second compound 0.1 µM, first compound 10 µM
# [13] = second compound 0.316 µM, first compound 0.0316 µM
# [14] = second compound 0.316 µM, first compound 0.1 µM
# [15] = second compound 0.316 µM, first compound 0.316 µM
# [16] = second compound 0.316 µM, first compound 1 µM
# [17] = second compound 0.316 µM, first compound 3.16 µM
# [18] = second compound 0.316 µM, first compound 10 µM
# [19] = second compound 1 µM, first compound 0.0316 µM
# [20] = second compound 1 µM, first compound 0.1 µM
# [21] = second compound 1 µM, first compound 0.316 µM
# [22] = second compound 1 µM, first compound 1 µM
# [23] = second compound 1 µM, first compound 3.16 µM
# [24] = second compound 1 µM, first compound 10 µM
# [25] = second compound 3.16 µM, first compound 0.0316 µM
# [26] = second compound 3.16 µM, first compound 0.1 µM
# [27] = second compound 3.16 µM, first compound 0.316 µM
# [28] = second compound 3.16 µM, first compound 1 µM
# [29] = second compound 3.16 µM, first compound 3.16 µM
# [30] = second compound 3.16 µM, first compound 10 µM
# [31] = second compound 10 µM, first compound 0.0316 µM
# [32] = second compound 10 µM, first compound 0.1 µM
# [33] = second compound 10 µM, first compound 0.316 µM
# [34] = second compound 10 µM, first compound 1 µM
# [35] = second compound 10 µM, first compound 3.16 µM
# [36] = second compound 10 µM, first compound 10 µM
# 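Also: spheroids exposed to compounds for seven days before readout.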
# 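For viability, T/C in this document: 100% = DMSO vehicle control viability.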
smiles,measurement,setting,value
CCc1cc2c(N3CCc4c(cc(Cn5ccnc5)cc4-c4cn(C)nc4C(F)(F)F)C3=O)cc(C)nc2c(OC)n1 + Cc1cccc(N(C)C(=O)C2C(O)CCN2c2nc(C)cc(C(F)(F)F)c2C#N)c1,IC50,second compound 0.0316 µM,> 10 µM
same,IC50,second compound 0.1 µM,> 10 µM
same,IC50,second compound 0.316 µM,> 10 µM
same,IC50,second compound 1 µM,> 10 µM
same,IC50,second compound 3.16 µM,> 10 µM
same,IC50,second compound 10 µM,> 10 µM
same,"viability, T/C",[1],105%
same,"viability, T/C",[2],101%
same,"viability, T/C",[3],101%
same,"viability, T/C",[4],98.3%
same,"viability, T/C",[5],95.1%
same,"viability, T/C",[6],97.3%
same,"viability, T/C",[7],101%
same,"viability, T/C",[8],96.9%
same,"viability, T/C",[9],90.2%
same,"viability, T/C",[10],77.2%
same,"viability, T/C",[11],111%
same,"viability, T/C",[12],105%
same,"viability, T/C",[13],94.7%
same,"viability, T/C",[14],95.3%
same,"viability, T/C",[15],105%
same,"viability, T/C",[16],81%
same,"viability, T/C",[17],90.6%
same,"viability, T/C",[18],89.8%
same,"viability, T/C",[19],96.6%
same,"viability, T/C",[20],104%
same,"viability, T/C",[21],95.8%
same,"viability, T/C",[22],95.7%
same,"viability, T/C",[23],99.6%
same,"viability, T/C",[24],94.9%
same,"viability, T/C",[25],111%
same,"viability, T/C",[26],93.6%
same,"viability, T/C",[27],87.6%
same,"viability, T/C",[28],92.2%
same,"viability, T/C",[29],107%
same,"viability, T/C",[30],94%
same,"viability, T/C",[31],94.8%
same,"viability, T/C",[32],111%
same,"viability, T/C",[33],80.7%
same,"viability, T/C",[34],91.5%
same,"viability, T/C",[35],98.1%
same,"viability, T/C",[36],86%
C=CC(=O)N1CCN(c2nc(=O)n(-c3c(C)ccnc3C(C)C)c3nc(-c4c(O)cccc4F)c(F)cc23)C(C)C1 (centres undefined) + COC1C(OC(N)=O)C(O)C(Oc2ccc3c(O)c(NC(=O)c4ccc(O)c(CC=C(C)C)c4)c(=O)oc3c2C)OC1(C)C,IC50,second compound 0.0316 µM,> 10 µM
same,IC50,second compound 0.1 µM,> 10 µM
same,IC50,second compound 0.316 µM,> 10 µM
same,IC50,second compound 1 µM,> 10 µM
same,IC50,second compound 3.16 µM,> 10 µM
same,IC50,second compound 10 µM,> 10 µM
same,"viability, T/C",[1],95.8%
same,"viability, T/C",[2],93.5%
same,"viability, T/C",[3],104%
same,"viability, T/C",[4],101%
same,"viability, T/C",[5],104%
same,"viability, T/C",[6],91.4%
same,"viability, T/C",[7],96.7%
same,"viability, T/C",[8],105%
same,"viability, T/C",[9],98%
same,"viability, T/C",[10],101%
same,"viability, T/C",[11],106%
same,"viability, T/C",[12],96.9%
same,"viability, T/C",[13],103%
same,"viability, T/C",[14],96.3%
same,"viability, T/C",[15],99.7%
same,"viability, T/C",[16],101%
same,"viability, T/C",[17],107%
same,"viability, T/C",[18],98.6%
same,"viability, T/C",[19],106%
same,"viability, T/C",[20],105%
same,"viability, T/C",[21],97.6%
same,"viability, T/C",[22],101%
same,"viability, T/C",[23],109%
same,"viability, T/C",[24],98.8%
same,"viability, T/C",[25],98.1%
same,"viability, T/C",[26],101%
same,"viability, T/C",[27],101%
same,"viability, T/C",[28],104%
same,"viability, T/C",[29],98.5%
same,"viability, T/C",[30],102%
same,"viability, T/C",[31],103%
same,"viability, T/C",[32],92.8%
same,"viability, T/C",[33],98.8%
same,"viability, T/C",[34],109%
same,"viability, T/C",[35],106%
same,"viability, T/C",[36],98.8%
